The results in this text go back to US9428507B2, “Compounds for the treatment of malaria” (The Broad Institute, Inc., priority 2013, dated 2016).

The test system of the test is Dd2 strain of P. falciparum. In words: Activity against the Dd2 strain of P. falciparum (SYBR Green I, 72-h incubation). It is filed as cell-based. The note with it: Plasmodium falciparum, DD2, 72 h, read-out: EC^50 Dd2. How it is done: The Dd2 strain of P. falciparum was cultured in complete medium (RPMI with L-glutamine, 4.3% heat-inactivated O-positive human serum, 2.08 mg/ml albumax, 0.013 mg/ml hypoxanthine, 1.17 mg/ml glucose, 0.18% NaHCO3, 0.031 M Hepes, 2.60 mM NaOH, and 0.043 mg/ml gentamicin) until the parasitemia reached 3-8%. Parasitemia was determined by checking at least 500 red blood cells from a Giemsa-stained blood smear. The Dd2 cultures along with tested O-positive red blood cells are centrifuged at room temperature at 2,000 rpm for 5 min using an Eppendorf centrifuge 581 OR with an A-4-81 rotor. The medium was aspirated off. For the compound screening, a parasite dilution at a 1% parasitemia and 1.0% hematocrit was created with screening medium (RPMI with L-glutamine, 4.16 mg/ml albumax II, 0.013 mg/ml hypoxanthine, 1.73 mg/ml glucose, 0.18% NaHCO3, 0.031M Hepes, 2.60 mM NaOH, and 0.043 mg/ml gentamicin). The suspension was gassed with 93% nitrogen, 4% carbon dioxide, and 3% oxygen and placed at 37° C. until needed. Using a liquid dispenser, 20 μl of screening medium was dispensed into 384-well, black, clear-bottom plates. With a PinTool, 100 nl of compounds dissolved in DMSO was transferred into the assay plates along with control compound (mefloquine). Next, 30 μl of the parasite suspension in screening medium was then dispensed into the assay plates such that the final parasitemia was 1%, and the final hematocrit was 1.0%. Final concentration of DMSO was 0.125%. Mefloquine at a final concentration of 20 μM and DMSO at a final concentration of 0.125% were used within the assay plates to serve as background and baseline controls, respectively. The assay plates were transferred to incubators (93% nitrogen, 4% carbon dioxide, and 3% oxygen during the 72-h incubation at 37° C.). Ten microliters of detection reagent consisting of 1 OX SYBR Green I (Invitrogen; supplied in 10,000× concentration) in lysis buffer (20 mM Tris-HCl, 5 mM EDTA, 0.16% Saponin wt/vol, 1.6% Triton X vol/vol) was dispensed into the assay plates. For optimal staining, the assay plates were left at room temperature for 24 h in the dark. The assay plates were read by using an Envision (PerkinElmer) reader, with 505 dichroic mirrors with 485-nm excitation and 530-nm emission settings, and the plate reads were from the bottom.
In the case of `COc1ccc2c3c([nH]c2c1)[C@H](CO)N(C(=O)c1ccccc1)CC31CCN(C(=O)Nc2ccccc2F)CC1` [Compound 50, (R)-2′-benzoyl-N-(2-fluorophenyl)-1′-(hydroxymethyl)-7′-methoxy-1′,2′,3′,9′-tetrahydrospiro[piperidine-4,4′-pyrido[3,4-b]indole]-1-carboxamide], the EC50 fell in the range of 1240 to 2250 nM.
`COc1ccc2c3c([nH]c2c1)[C@H](CO)N(C(C)=O)CC31CCN(C(=O)Nc2c(F)cccc2F)CC1` [Compound 51, (R)-2′-acetyl-N-(2,6-difluorophenyl)-1′-(hydroxymethyl)-7′-methoxy-1′,2′,3′,9′-tetrahydrospiro[piperidine-4,4′-pyrido[3,4-b]indole]-1-carboxamide]: the EC50 fell in the range of 177 to 235 nM.
As for `COc1ccc2c3c([nH]c2c1)[C@H](CO)N(C(C)=O)CC31CCN(C(=O)Nc2cccnc2)CC1` [Compound 52, (R)-2′-acetyl-1′-(hydroxymethyl)-7′-methoxy-N-(pyridin-3-yl)-1′,2′,3′,9′-tetrahydrospiro[piperidine-4,4′-pyrido[3,4-b]indole]-1-carboxamide], the figure is 1450 to 1980 nM; as for `COc1ccc2c3c([nH]c2c1)[C@H](CO)N(S(C)(=O)=O)CC31CCN(C(=O)Nc2ccccc2F)CC1` [Compound 53, (R)-N-(2-fluorophenyl)-1′-(hydroxymethyl)-7′-methoxy-2′-(methylsulfonyl)-1′,2′,3′,9′-tetrahydrospiro[piperidine-4,4′-pyrido[3,4-b]indole]-1-carboxamide], 37 to 118 nM; as for `COc1ccc2c3c([nH]c2c1)[C@H](CO)N(C(C)=O)CC31CCN(C(=O)Nc2ccc(F)cc2F)CC1` [Compound 54, (R)-2′-acetyl-N-(2,4-difluorophenyl)-1′-(hydroxymethyl)-7′-methoxy-1′,2′,3′,9′-tetrahydrospiro[piperidine-4,4′-pyrido[3,4-b]indole]-1-carboxamide], 353 to 551 nM.
Turning to `COc1ccc2c3c([nH]c2c1)[C@H](CO)N(C(C)=O)CC31CCN(C(=O)Nc2cc(F)ccc2F)CC1` [Compound 55, (R)-2′-acetyl-N-(2,5-difluorophenyl)-1′-(hydroxymethyl)-7′-methoxy-1′,2′,3′,9′-tetrahydrospiro [piperidine-4,4′-pyrido[3,4-b]indole]-1-carboxamide], the EC50 lay within 321 to 719 nM.
On to `CCN1CC2(CCN(C(=O)OC(C)(C)C)CC2)c2c([nH]c3cc(OC)ccc23)[C@@H]1CO[Si](C)(C)C(C)(C)C` [Compound 56, (R)-tert-butyl 1′-(((tert-butyldimethylsilyl)oxy)methyl)-2′-ethyl-7′-methoxy-1′,2′,3′,9′-tetrahydrospiro [piperidine-4,4′-pyrido[3,4-b]indole]-1-carboxylate], for which the EC50 fell in the range of 1040 to 8770 nM.
Consider `COc1ccc2c3c([nH]c2c1)[C@H](CO)N(C(C)=O)CC31CCN(C(=O)Nc2ccccc2C(F)(F)F)CC1` [Compound 57, (R)-2′-acetyl-1′-(hydroxymethyl)-7′-methoxy-N-(2-(trifluoromethyl)phenyl)-1′,2′,3′,9′-tetrahydrospiro[piperidine-4,4′-pyrido[3,4-b]indole]-1-carboxamide], for which the EC50 was 577 to 1210 nM.
For `COc1ccc2c3c([nH]c2c1)[C@H](CO)N(C(C)=O)CC31CCN(C(=O)Nc2ccc(F)c(F)c2)CC1` [Compound 58, (R)-2′-acetyl-N-(3,4-difluorophenyl)-1′-(hydroxymethyl)-7′-methoxy-1′,2′,3′,9′-tetrahydrospiro[piperidine-4,4′-pyrido[3,4-b]indole]-1-carboxamide], the EC50 fell in the range of 1440 to 1600 nM.
As for `COc1ccc2c3c([nH]c2c1)[C@H](CO)N(C(C)=O)CC31CCN(S(=O)(=O)c2ccccc2F)CC1` [Compound 59, (R)-1-(1-((2-fluorophenyl)sulfonyl)-1′-(hydroxymethyl)-7′-methoxyspiro[piperidine-4,4′-pyrido[3,4-b]indol]-2′(1′H,3′H,9′H)-yl)ethanone], the figure is 1460 to 2890 nM; as for `CCN1CC2(CCN(C(=O)Nc3ccccc3F)CC2)c2c([nH]c3cc(OC)ccc23)[C@@H]1CO` [Compound 60, (R)-2′-ethyl-N-(2-fluorophenyl)-1′-(hydroxymethyl)-7′-methoxy-1′,2′,3′,9′-tetrahydrospiro [piperidine-4,4′-pyrido[3,4-b]indole]-1-carboxamide], 4610 to 5790 nM.
The figure for `COc1ccc2c3c([nH]c2c1)[C@H](CO)N(C)CC31CCN(C(=O)Nc2ccccc2F)CC1` [Compound 61, (R)-N-(2-fluorophenyl)-1′-(hydroxymethyl)-7′-methoxy-2′-methyl-1′,2′,3′,9′-tetrahydrospiro[piperidine-4,4′-pyrido[3,4-b]indole]-1-carboxamide] is 3780 to 4120 nM; for `COc1ccc2c3c([nH]c2c1)[C@H](CO)N(CC(F)(F)F)CC31CCN(C(=O)Nc2ccccc2F)CC1` [Compound 62, (R)-N-(2-fluorophenyl)-1′-(hydroxymethyl)-7′-methoxy-2′-(2,2,2-trifluoroethyl)-1′,2′,3′,9′-tetrahydrospiro[piperidine-4,4′-pyrido[3,4-b]indole]-1-carboxamide] it is 4490 to 9480 nM; for `COc1ccc2c3c([nH]c2c1)[C@H](CO)N(C(C)=O)CC31CCN(C(=O)N(C)c2ccccc2F)CC1` [Compound 63, (R)-2′-acetyl-N-(2-fluorophenyl)-1′-(hydroxymethyl)-7′-methoxy-N-methyl-1′,2′,3′,9′-tetrahydrospiro[piperidine-4,4′-pyrido[3,4-b]indole]-1-carboxamide] it is 1700 to 2920 nM.
The figure for `COCCOCOC[C@H]1c2[nH]c3cc(OC)ccc3c2C2(CCN(C(=O)Nc3ccccc3F)CC2)CN1C(C)=O` [Compound 64, (R)-2′-acetyl-N-(2-fluorophenyl)-7′-methoxy-1′-(((2-methoxyethoxy)methoxy)methyl)-1′,2′,3′,9′-tetrahydrospiro[piperidine-4,4′-pyrido[3,4-b]indole]-1-carboxamide] is 3620 nM; for `COc1ccc2c3c([nH]c2c1)[C@H](CN1CCOCC1)N(C(C)=O)CC31CCN(C(=O)Nc2ccccc2F)CC1` [Compound 65, (S)-2′-acetyl-N-(2-fluorophenyl)-7′-methoxy-1′-(morpholinomethyl)-1′,2′,3′,9′-tetrahydrospiro[piperidine-4,4′-pyrido[3,4-b]indole]-1-carboxamide] it is 882 nM.
For the compound `COc1ccc(COC[C@H]2c3[nH]c4cc(OC)ccc4c3C3(CCN(C(=O)Nc4ccccc4F)CC3)CN2C(C)=O)cc1` [Compound 66, (R)-2′-acetyl-N-(2-fluorophenyl)-7′-methoxy-1′-(((4-methoxybenzyl)oxy)methyl)-1′,2′,3′,9′-tetrahydrospiro[piperidine-4,4′-pyrido[3,4-b]indole]-1-carboxamide], the EC50 worked out at 422 nM.
Consider `COCOC[C@H]1c2[nH]c3cc(OC)ccc3c2C2(CCN(C(=O)Nc3ccccc3F)CC2)CN1C(C)=O` [Compound 67, (R)-2′-acetyl-N-(2-fluorophenyl)-7′-methoxy-1′-((methoxymethoxy)methyl)-1′,2′,3′,9′-tetrahydrospiro [piperidine-4,4′-pyrido[3,4-b]indole]-1-carboxamide], for which the EC50 was determined as 3040 nM.
With `COc1ccc2c3c([nH]c2c1)[C@H](CO)N(C(C)=O)CC31CCN(C(=O)Nc2ccccn2)CC1` [Compound 68, (R)-2′-acety1-1′-(hydroxymethyl)-7′-methoxy-N-(pyridin-2-yl)-1′,2′,3′,9′-tetrahydrospiro[piperidine-4,4′-pyrido[3,4-b]indole]-1-carboxamide], the EC50 was in the range of 918 to 2270 nM.
Take `COC[C@H]1c2[nH]c3cc(OC)ccc3c2C2(CCN(C(=O)Nc3ccccc3F)CC2)CN1C(C)=O` [Compound 69, (R)-2′-acetyl-N-(2-fluorophenyl)-7′-methoxy-1′-(methoxymethyl)-1′,2′,3′,9′-tetrahydrospiro [piperidine-4,4′-pyrido[3,4-b]indole]-1-carboxamide]: the EC50 was found to be 9050 nM.
The figure for `COc1ccc2c3c([nH]c2c1)[C@H](CO)N(CCCc1ccccc1)CC31CCN(C(=O)Nc2ccccc2F)CC1` [Compound 71, (R)-N-(2-fluorophenyl)-1′-(hydroxymethyl)-7′-methoxy-2′-(3-phenylpropy1)-1′,2′,3′,9′-tetrahydrospiro[piperidine-4,4′-pyrido[3,4-b]indole]-1-carboxamide] is 7240 nM.
As for `COc1ccc2c3c([nH]c2c1)[C@H](CCO)N(C(C)=O)CC31CCN(C(=O)Nc2ccccc2F)CC1` [Compound 73, (S)-2′-acetyl-N-(2-fluorophenyl)-1′-(2-hydroxyethyl)-7′-methoxy-1′,2′,3′,9′-tetrahydrospiro [piperidine-4,4′-pyrido[3,4-b]indole]-1-carboxamide], the figure is 468 nM.
